52 compounds from patent US12673946B2, “Pyrimidin-4(3H)-one derivatives as TRPV4 antagonists” (RaQualia Pharma Inc., priority 2020, dated 2026) can be followed below.

The assay has as its target T1, human TRPV4 (Homo sapiens, UniProt Q9HBA0).
T1 construct: host or cells: tetracycline-inducible Flp-In T-REx 293 cells
The assay can be described thus: Hypotonicity-induced Ca2+ influx (Fluo-4, FDSS). The class given is cell-based. The method, boiled down: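 Flp-In T-REx 293 cells with tetracycline-induced human TRPV4, loaded with Fluo-4 for 60 min at 25 °C. Compound added 5 min before hypotonic mannitol/CaCl2 solution. Ca2+ signal recorded for 4.5 min on FDSS.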

Where [1] appears, read: Flp-In T-REx 293 cells expressing human TRPV4, examples listed under heading 'Human IC50<50 nM'.
The mark [2] stands for this setting: Flp-In T-REx 293 cells stably expressing human TRPV4, compounds listed by potency bin (<10 nM Tables 96-1/96-2, <3 nM Table 97).

Bounds are passed on as bounds.

T1 sequence (Q9HBA0 whole entry): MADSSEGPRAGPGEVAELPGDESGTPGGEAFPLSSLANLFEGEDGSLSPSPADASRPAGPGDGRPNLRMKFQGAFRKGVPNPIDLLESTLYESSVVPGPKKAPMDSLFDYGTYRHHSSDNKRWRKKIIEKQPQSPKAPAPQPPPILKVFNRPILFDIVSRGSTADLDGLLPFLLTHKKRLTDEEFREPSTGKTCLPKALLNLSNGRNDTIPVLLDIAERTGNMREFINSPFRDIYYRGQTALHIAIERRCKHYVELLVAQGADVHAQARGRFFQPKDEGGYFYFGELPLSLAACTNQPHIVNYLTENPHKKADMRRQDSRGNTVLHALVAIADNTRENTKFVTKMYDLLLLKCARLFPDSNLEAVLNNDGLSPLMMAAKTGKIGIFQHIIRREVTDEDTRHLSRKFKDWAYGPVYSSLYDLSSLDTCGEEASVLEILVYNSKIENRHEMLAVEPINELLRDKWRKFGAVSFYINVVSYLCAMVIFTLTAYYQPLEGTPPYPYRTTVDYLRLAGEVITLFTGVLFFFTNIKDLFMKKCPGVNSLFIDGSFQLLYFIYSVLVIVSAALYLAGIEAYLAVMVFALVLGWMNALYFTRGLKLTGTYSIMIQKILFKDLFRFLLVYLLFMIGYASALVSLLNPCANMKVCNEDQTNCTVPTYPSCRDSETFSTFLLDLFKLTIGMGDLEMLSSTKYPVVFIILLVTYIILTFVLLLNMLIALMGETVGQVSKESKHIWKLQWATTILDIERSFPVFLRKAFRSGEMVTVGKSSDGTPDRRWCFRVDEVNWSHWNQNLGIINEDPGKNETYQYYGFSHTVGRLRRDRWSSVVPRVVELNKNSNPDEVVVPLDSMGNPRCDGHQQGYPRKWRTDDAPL

For the compound `O=C(Cc1cccc(-c2ccc(C(F)(F)F)cc2)c1)N1CCCc2nc(C3(c4cccc(Cl)c4)CC3)[nH]c(=O)c2C1` [17-128], the IC50 reads like this: under setting [1], less than 50 nM; under setting [2], less than 10 nM.

`O=C(Cc1cccc(-c2ccc(OC(F)(F)F)cc2)c1)N1CCCc2nc(C3(c4cccc(Cl)c4)CC3)[nH]c(=O)c2C1` [17-129] yielded an IC50 under setting [1] of less than 50 nM and an IC50 under setting [2] of less than 10 nM.

In the case of `O=C(Cc1cccc(-c2ccc(Cl)cc2)c1)N1CCCc2nc(C3(c4cccc(Cl)c4)CC3)[nH]c(=O)c2C1` [17-130], the IC50 under setting [1] was less than 50 nM and the IC50 under setting [2] was less than 10 nM.

In the case of `N#Cc1ccc(-c2cccc(CC(=O)N3CCCc4nc(C5(c6ccccc6)CC5)[nH]c(=O)c4C3)c2)cc1` [17-131], the IC50 under setting [1] is less than 50 nM.

The compound `CC(C)(C)c1ccc(-c2cccc(CC(=O)N3CCCc4nc(C5(c6ccccc6)CC5)[nH]c(=O)c4C3)c2)cc1` [17-132] registered an IC50 under setting [1] of less than 50 nM.

Regarding `O=C(Cc1cccc(-c2ccc(C(F)(F)F)cc2)c1)N1CCCc2nc(C3(c4ccccc4)CC3)[nH]c(=O)c2C1` [17-133], the IC50 under setting [1] was less than 50 nM and the IC50 under setting [2] was less than 10 nM.

`O=C(Cc1cccc(-c2ccc(OC(F)(F)F)cc2)c1)N1CCCc2nc(C3(c4ccccc4)CC3)[nH]c(=O)c2C1` [17-134] came in with an IC50 under setting [1] of less than 50 nM and an IC50 under setting [2] of less than 10 nM.

On to `O=C(Cc1cccc(-c2ccc(Cl)cc2)c1)N1CCCc2nc(C3(c4ccccc4)CC3)[nH]c(=O)c2C1` [17-135], for which the IC50 is less than 50 nM under setting [1] and less than 10 nM under setting [2].

The compound `O=C(Cc1cccc(-c2cccc(Cl)c2)c1)N1CCCc2nc(C3(c4ccccc4)CC3)[nH]c(=O)c2C1` [17-136] registered an IC50 under setting [1] of less than 50 nM and an IC50 under setting [2] of less than 10 nM.

For `O=C(Cc1cccc(-c2coc3ccccc23)c1)N1CCCc2nc(C3(c4ccccc4)CC3)[nH]c(=O)c2C1` [17-137], the IC50 reads like this: under setting [1], less than 50 nM; under setting [2], less than 10 nM.

Take `N#Cc1cc(Cl)cc(-c2cccc(CC(=O)N3CCCc4nc(C5(c6ccccc6)CC5)[nH]c(=O)c4C3)c2)c1` [17-138]: the IC50 is less than 50 nM under setting [1] and less than 10 nM under setting [2].

As for `O=C(Cc1ccccc1Oc1ccccc1)N1CCCc2nc(C3(c4cccc(Cl)c4)CC3)[nH]c(=O)c2C1` [17-139], the IC50 is, setting by setting: under setting [1], less than 50 nM; under setting [2], less than 10 nM.

Regarding `O=C(Cc1cccc(Oc2ccccc2)c1)N1CCCc2nc(C3(c4cccc(Cl)c4)CC3)[nH]c(=O)c2C1` [17-140], the concentration for half-maximal inhibition (IC50) under setting [1] was less than 50 nM.

Consider `CC(C)(C)c1cccc(CC(=O)N2CCCc3nc(C4(c5cccc(Cl)c5)CC4)[nH]c(=O)c3C2)c1` [17-141], for which the IC50 by setting is: under setting [1], less than 50 nM; under setting [2], less than 10 nM.

Under setting [1], `CC(C)(C)c1cccc(CC(=O)N2CCCc3nc(C4(c5ccccc5)CC4)[nH]c(=O)c3C2)c1` [17-142] came in with a half-maximal inhibitory concentration (IC50) of less than 50 nM.

As to `O=C(Cc1ccccc1Oc1ccccc1)N1CCCc2nc(C3(c4ccccc4)CC3)[nH]c(=O)c2C1` [17-143], under setting [1], the IC50 was less than 50 nM.

In turn, `O=C(Cc1cccc(Oc2ccccc2)c1)N1CCCc2nc(C3(c4ccccc4)CC3)[nH]c(=O)c2C1` [17-144] showed an IC50 under setting [1] of less than 50 nM.

In turn, `O=C(Cc1ccccc1OCc1ccccc1)N1CCCc2nc(C3(c4ccccc4)CC3)[nH]c(=O)c2C1` [17-145] showed an IC50 under setting [1] of less than 50 nM and an IC50 under setting [2] of less than 10 nM.

In the case of `O=C(Cc1cccc(OCc2ccccc2)c1)N1CCCc2nc(C3(c4ccccc4)CC3)[nH]c(=O)c2C1` [17-146], the IC50 under setting [1] is less than 50 nM and the IC50 under setting [2] was less than 10 nM.

Compound `O=C(COc1cccc(C(F)(F)F)c1)N1CCCc2nc(C3(c4cccc(Cl)c4)CC3)[nH]c(=O)c2C1` [17-147] returned an IC50 under setting [1] of less than 50 nM.

For `CC(C)c1csc(C2(c3nc4c(c(=O)[nH]3)CN(C(=O)[C@H](O)c3cccc(C(F)(F)F)c3)CCC4)CC2)c1` [18-1], the IC50 is less than 50 nM under setting [1] and less than 3 nM under setting [2].

On to `O=C([C@H](O)c1cccc(C(F)(F)F)c1)N1CCCc2nc(C3(c4cc(Br)cs4)CC3)[nH]c(=O)c2C1` [18-2], for which the IC50 is, setting by setting: under setting [1], less than 50 nM; under setting [2], less than 3 nM.

Consider `O=C(C(O)c1cccc(C(F)(F)F)c1F)N1CCCc2nc(C3(c4cccs4)CC3)[nH]c(=O)c2C1` (centres unmarked) [18-3], for which the IC50 runs as follows: under setting [1], less than 50 nM; under setting [2], less than 3 nM.

`O=C([C@H](O)c1cccc(C(F)(F)F)c1)N1CCCc2nc(C3(c4cc(C5CCCCC5)cs4)CC3)[nH]c(=O)c2C1` [18-4] yielded an IC50 under setting [1] of less than 50 nM and an IC50 under setting [2] of less than 10 nM.

With `O=C(C(O)c1cccc(-c2ccc(Cl)cc2)c1)N1CCCc2nc(C3(c4cccs4)CC3)[nH]c(=O)c2C1` (centres unmarked) [18-5], the IC50 is less than 50 nM under setting [1] and less than 10 nM under setting [2].

As to `O=C(C(O)c1cccc(SC(F)(F)F)c1)N1CCCc2nc(C3(c4cccs4)CC3)[nH]c(=O)c2C1` (centres unmarked) [18-6], the IC50 by setting is: under setting [1], less than 50 nM; under setting [2], less than 10 nM.

As to `CC(C)(C)c1cccc(C(O)C(=O)N2CCCc3nc(C4(c5cccs5)CC4)[nH]c(=O)c3C2)c1` (centres unmarked) [18-7], the IC50 under setting [1] is less than 50 nM and the IC50 under setting [2] was less than 10 nM.

In the case of `O=C(C(O)c1cccc(S(F)(F)(F)(F)F)c1)N1CCCc2nc(C3(c4cccs4)CC3)[nH]c(=O)c2C1` (centres unmarked) [18-8], the IC50 is less than 50 nM under setting [1] and less than 10 nM under setting [2].

For `O=C([C@H](O)c1cccc(C(F)(F)F)c1)N1CCCc2nc(C3(c4cccs4)CC3)[nH]c(=O)c2C1` [18-9], the IC50 is less than 50 nM under setting [1] and less than 10 nM under setting [2].

With `O=C(C(O)c1cccc(Cl)c1F)N1CCCc2nc(C3(c4cccs4)CC3)[nH]c(=O)c2C1` (centres unmarked) [18-10], under setting [1], the IC50 was less than 50 nM.

Under setting [1], `O=C([C@H](O)c1cccc(F)c1F)N1CCCc2nc(C3(c4cccs4)CC3)[nH]c(=O)c2C1` [18-11] gave an IC50 of less than 50 nM.

Under setting [1], `O=C([C@H](O)c1cccc(Cl)c1)N1CCCc2nc(C3(c4cccs4)CC3)[nH]c(=O)c2C1` [18-12] yielded an IC50 of less than 50 nM.

The compound `O=C(C(O)c1cccc(C2CC2)c1)N1CCCc2nc(C3(c4cccs4)CC3)[nH]c(=O)c2C1` (centres unmarked) [18-13] came in with an IC50 under setting [1] of less than 50 nM.

Consider `CC(C)c1csc(C2(c3nc4c(c(=O)[nH]3)CN(C(=O)C(O)c3cccc(C(C)(C)C)c3)CCC4)CC2)c1` (centres unmarked) [18-15], for which the IC50 under setting [1] is less than 50 nM and the half-maximal inhibitory concentration (IC50) under setting [2] was less than 10 nM.

As for `CC(C)c1csc(C2(c3nc4c(c(=O)[nH]3)CN(C(=O)C(O)c3cccc(C(F)(F)F)c3F)CCC4)CC2)c1` (centres unmarked) [18-16], the IC50 under setting [1] is less than 50 nM and the IC50 under setting [2] was less than 10 nM.

For the compound `CC(C)c1csc(C2(c3nc4c(c(=O)[nH]3)CN(C(=O)C(O)c3cccc(Cl)c3F)CCC4)CC2)c1` (centres unmarked) [18-17], the IC50 is less than 50 nM under setting [1] and less than 3 nM under setting [2].

Turning to `CC(C)c1csc(C2(c3nc4c(c(=O)[nH]3)CN(C(=O)C(O)c3cccc(S(F)(F)(F)(F)F)c3)CCC4)CC2)c1` (centres unmarked) [18-18], the 50% inhibitory concentration (IC50) is less than 50 nM under setting [1] and less than 10 nM under setting [2].

`CC(C)c1csc(C2(c3nc4c(c(=O)[nH]3)CN(C(=O)C(O)c3cccc(SC(F)(F)F)c3)CCC4)CC2)c1` (centres unmarked) [18-19]: the IC50 runs as follows: under setting [1], less than 50 nM; under setting [2], less than 10 nM.

On to `CC(C)c1csc(C2(c3nc4c(c(=O)[nH]3)CN(C(=O)C(O)c3cccc(-c5cccc(OC(F)(F)F)c5)c3)CCC4)CC2)c1` (centres unmarked) [18-20], for which the IC50 runs as follows: under setting [1], less than 50 nM; under setting [2], less than 10 nM.

For the compound `CC(C)c1csc(C2(c3nc4c(c(=O)[nH]3)CN(C(=O)C(O)c3cccc(-c5cccc(C(F)(F)F)c5)c3)CCC4)CC2)c1` (centres unmarked) [18-21], the IC50 under setting [1] was less than 50 nM and the IC50 under setting [2] was less than 10 nM.

As for `O=C([C@H](O)c1cccc(Cl)c1)N1CCCc2nc(C3(c4cc(C5CCCCC5)cs4)CC3)[nH]c(=O)c2C1` [18-22], the IC50 reads like this: under setting [1], less than 50 nM; under setting [2], less than 3 nM.

As to `O=C([C@H](O)c1cccc(Cl)c1)N1CCCc2nc(C3(c4cc(C5CCCC5)cs4)CC3)[nH]c(=O)c2C1` [18-23], the IC50 by setting is: under setting [1], less than 50 nM; under setting [2], less than 3 nM.

Take `CC(C)c1csc(C2(c3nc4c(c(=O)[nH]3)CN(C(=O)[C@H](O)c3cccc(Cl)c3)CCC4)CC2)c1` [18-24]: the IC50 is less than 50 nM under setting [1] and less than 3 nM under setting [2].

`O=C([C@H](O)c1cccc(Cl)c1)N1CCCc2nc(C3(c4cc(C5CCOCC5)cs4)CC3)[nH]c(=O)c2C1` [18-25]: the IC50 by setting is: under setting [1], less than 50 nM; under setting [2], less than 10 nM.

For `O=C([C@H](O)c1cccc(-c2cccc(OC(F)(F)F)c2)c1)N1CCCc2nc(C3(c4cc(-c5ccccc5)cs4)CC3)[nH]c(=O)c2C1` [18-26], the IC50 under setting [1] was less than 50 nM and the IC50 under setting [2] was less than 10 nM.

For `O=C(Cc1cccc(-c2cccc(Cl)c2)c1)N1CCCc2nc(C3(c4cc(-c5ccccc5)cs4)CC3)[nH]c(=O)c2C1` [18-27], the IC50 is less than 50 nM under setting [1] and less than 10 nM under setting [2].

With `O=C(Cc1cccc(-c2cccc(C(F)(F)F)c2)c1)N1CCCc2nc(C3(c4cc(-c5ccccc5)cs4)CC3)[nH]c(=O)c2C1` [18-28], the IC50 reads like this: under setting [1], less than 50 nM; under setting [2], less than 10 nM.

Turning to `CC(C)c1csc(C2(c3nc4c(c(=O)[nH]3)CN(C(=O)Cc3cccc(-c5cccc(C(F)(F)F)c5)c3)CCC4)CC2)c1` [18-29], the IC50 runs as follows: under setting [1], less than 50 nM; under setting [2], less than 10 nM.

As to `CC(C)c1csc(C2(c3nc4c(c(=O)[nH]3)CN(C(=O)Cc3cccc(-c5cccc(Cl)c5)c3)CCC4)CC2)c1` [18-30], the IC50 runs as follows: under setting [1], less than 50 nM; under setting [2], less than 10 nM.

In the case of `O=C([C@H](O)c1cccc(C(F)(F)F)c1)N1CCCc2nc(C3(c4cnc(-c5ccccc5)o4)CC3)[nH]c(=O)c2C1` [18-31], under setting [1], the IC50 was less than 50 nM.

As to `O=C([C@H](O)c1cccc(C(F)(F)F)c1)N1CCCc2nc(C3(c4cncc(C5CCCCC5)c4)CC3)[nH]c(=O)c2C1` [19-1], the IC50 by setting is: under setting [1], less than 50 nM; under setting [2], less than 3 nM.

Regarding `CC(C)c1cncc(C2(c3nc4c(c(=O)[nH]3)CN(C(=O)[C@H](O)c3cccc(C(F)(F)F)c3)CCC4)CC2)c1` [19-2], the IC50 under setting [1] is less than 50 nM and the IC50 under setting [2] is less than 10 nM.
